Measured values as given in ChEMBL document CHEMBL5244229, “Thiazole-containing compounds as therapeutic targets for cancer therapy” (Eur J Med Chem, 2020).
Values after ≈ are worked out from the molar mass of the structure shown. One block for each compound: values may come before it.

Legend:
[1] = Anticancer activity against human Melanoma tumor cell line; assay type: functional
[2] = Anticancer activity against human Colon carcinoma cell; assay type: functional
Ovarian carcinoma cell = assay: Anticancer activity against human Ovarian carcinoma cell; assay type: functional
HCT-116 [3] = assay: Antiproliferative activity against human HCT-116 cells assessed as cell growth inhibition; assay type: functional
PC-3 [4] = assay: Cytotoxicity against human PC-3 cells; assay type: functional
PC-3 [5] = assay: Anticancer activity against human PC-3 cells; assay type: functional, cell-based
HepG2 [6] = assay: Antiproliferative activity against human HepG2 cells assessed as reduction in cell viability incubated for 4 days by MTT assay; assay type: functional, cell-based; conditions: HepG2, 96 h
A549 [7] = assay: Antiproliferative activity against human A549 cells assessed as reduction in cell viability incubated for 4 days by MTT assay; assay type: functional, cell-based; conditions: A549, 96 h
SW-620 = assay: Antiproliferative activity against human SW620 cells assessed as reduction in cell viability incubated for 4 days by MTT assay; assay type: functional, cell-based; conditions: SW-620, 96 h
A-431 = assay: Antiproliferative activity against human A-431 cells assessed as reduction in cell viability incubated for 4 days by MTT assay; assay type: functional, cell-based; conditions: A-431, 96 h
[8] = Antiproliferative activity against human SK-RC-52 cells assessed as reduction in cell viability incubated for 4 days by MTT assay; assay type: functional, cell-based; conditions: SK-RC-52, 96 h
NCI-H460 [9] = assay: Cytotoxicity against human NCI-H460 cells assessed as inhibition of cell growth; assay type: functional
SF-268 = assay: Cytotoxicity against human SF-268 cells assessed as inhibition of cell growth; assay type: functional
MCF7 [10] = assay: Cytotoxicity against human MCF7 cells assessed as inhibition of cell growth; assay type: functional
HepG2 [11] = assay: Antiproliferative activity against human HepG2 cells assessed as reduction in cell viability; assay type: functional, cell-based
HeLa = assay: Antiproliferative activity against human HeLa cells assessed as reduction in cell viability; assay type: functional, cell-based
Hs-578T = assay: Antiproliferative activity against human Hs-578T cells assessed as reduction in cell viability; assay type: functional, cell-based
HepG2 [12] = assay: Anticancer activity against human HepG2 cells assessed as inhibition of cell proliferation at 25 uM measured after 24 hrs by MTT assay; assay type: functional, cell-based; conditions: HepG2, 24 h
HepG2 [13] = assay: Cytotoxicity against human HepG2 cells assessed as reduction in cell viability at 200 uM incubated for 48 hrs by MTT assay; assay type: functional
A549 [14] = assay: Anticancer activity against human A549 cells assessed as reduction of cell viability at 25 micromol relative to control; assay type: functional; conditions: dose 25 µmol
A549 [15] = assay: Anticancer activity against human A549 cells assessed as reduction of cell viability at 100 micromol relative to control; assay type: functional; conditions: dose 100 µmol
HCT-116 [16] = assay: Antiproliferative activity against human HCT-116 cells assessed as reduction in cell viability; assay type: functional, cell-based
[17] = Antiproliferative activity against human HLF cells; assay type: functional
HEK293 = assay: Antiproliferative activity against human HEK293 cells; assay type: functional
A549 [18] = assay: Antiproliferative activity against human A549 cells; assay type: functional, cell-based
HepG2 [19] = assay: Anticancer activity against human HepG2 cells assessed as inhibition of cell proliferation at 50 uM measured after 24 hrs by MTT assay; assay type: functional, cell-based; conditions: HepG2, 24 h
[20] = Anticancer activity against human LNCaP/AR cells; assay type: functional, cell-based
NCI-H460 [21] = assay: Antitumor activity against human NCI-H460 cells; assay type: functional, cell-based
NCI-H460 [22] = assay: Potency index, ratio of MKT-077 IC50 to test compound IC50 for antitumor activity against human NCI-H460 cells; assay type: functional
A549 [23] = assay: Antiproliferative activity against human A549 cells relative to control; assay type: functional
HCT-8 = assay: Anticancer activity against human HCT-8 cells at 5 microg/ml relative to control; assay type: functional; conditions: dose 5 µg/ml
HCT-116 [24] = assay: Antiproliferative activity against human HCT-116 cells assessed as reduction in cell viability incubated for 24 hrs by Celltiter-Glo cell viability assay; assay type: functional, cell-based; conditions: HCT-116, 24 h
MV4-11 [25] = assay: Antiproliferative activity against human MV4-11 cells assessed as reduction in cell viability incubated for 24 hrs by Celltiter-Glo cell viability assay; assay type: functional, cell-based; conditions: MV4-11, 24 h
MCF7 [26] = assay: Antiproliferative activity against human MCF7 cells assessed as reduction in cell viability incubated for 24 hrs by Celltiter-Glo cell viability assay; assay type: functional, cell-based; conditions: MCF7, 24 h
BALB/3T3 = assay: Antiproliferative activity against mouse BALB/3T3 cells assessed as reduction in cell viability incubated for 24 hrs by Celltiter-Glo cell viability assay; assay type: functional, cell-based; conditions: BALB/3T3, 24 h
HCT-116 [27] = assay: Anticancer activity against human HCT-116 cells; assay type: functional, cell-based
MV4-11 [28] = assay: Anticancer activity against human MV4-11 cells; assay type: functional, cell-based
[29] = Cytotoxicity against human HPDE cells assessed as induction of cell death at 5.51 uM; assay type: functional
HepG2 [30] = assay: Cytotoxicity against human HepG2 cells assessed as reduction in cell viability at 200 uM incubated for 24 hrs by MTT assay; assay type: functional, cell-based; conditions: HepG2, 24 h

GI50 (Ovarian carcinoma cell): 250 nM
Structure (SMILES): Cc1nn2c(SCC(=O)Nc3nccs3)nc3ccccc3c2nc1=O
GI50 [1]: 480 nM
GI50 [2]: 450 nM

GI50 (HCT-116 [3]): 2350 nM
Structure (SMILES): Clc1nccc2c(-c3csc(-c4c[nH]c5ncc(Br)cc45)n3)c[nH]c12

IC50 (PC-3 [5]): 24200 nM
Structure (SMILES): Cc1c(-c2csc(N)n2)sc2sc(-c3csc(N)n3)c(-c3ccccc3)c12
Activity (PC-3 [4]): >30%

IC50 (HepG2 [6]): 48 nM
IC50 (A549 [7]): 44 nM
IC50 (SW-620): 4.3 nM
IC50 (A-431): 20 nM
Structure (SMILES): O=C(CCl)Nc1ccc2nc(SCC(=O)Nc3ccc(Br)cn3)sc2c1
IC50 [8]: 1.2 nM

Structure (SMILES): C/C(=N/NC(=O)c1sc(=S)n(-c2ccccc2)c1N)c1cccnc1
GI50 (NCI-H460 [9]): 94 nM
GI50 (SF-268): 94 nM
GI50 (MCF7 [10]): 42.8 nM

IC50 (HepG2 [11]): 5080 nM
IC50 (HeLa): 823 nM
Structure (SMILES): CNc1nc(CC(=O)N/N=C/c2coc3ccccc3c2=O)cs1
IC50 (Hs-578T): 4950 nM

IC50 (HepG2 [12]): 43000 nM
Structure (SMILES): Cc1ccc(C2NC(=S)Nc3nc(Nc4ccc(S(N)(=O)=O)cc4)sc32)cc1 (centres undefined)

Structure (SMILES): CC1CCN(c2nc(-c3ccc4ccccc4c3)cs2)CC1
Activity (HepG2 [13]): 57%

Structure (SMILES): c1ccc(Nc2nc3ccc4cn[nH]c4c3s2)cc1
% viability reduction (A549 [14]): 72.1%
% viability reduction (A549 [15]): 78.8%

IC50 (HCT-116 [16]): 390 nM
GI50 (A549 [18]): 1460 nM
Structure (SMILES): CCCCCCCC(=O)SCC/C=C/[C@@H]1CC(=O)NCc2nc(cs2)C2=N[C@@](C)(CS2)C(=O)N[C@@H](c2ccc(O)cc2)C(=O)O1
GI50 [17]: > 100000 nM
GI50 (HEK293): > 100000 nM

IC50 (HepG2 [19]): 46000 nM
Structure (SMILES): NS(=O)(=O)c1ccc(N2C(=O)CSC2c2ccc([N+](=O)[O-])cc2)cc1 (centres undefined)

IC50 [20]: 380 nM
Structure (SMILES): CC(=O)c1cccc(-c2csc(N3CCOCC3)n2)c1

IC50 (NCI-H460 [21]): 6 nM
Structure (SMILES): CCN1C(=O)/C(=C2\Sc3ccccc3N2C)S/C1=N\[n+]1cccc2ccccc21.[I-]
Ratio IC50 (NCI-H460 [22]): 216.7

Structure (SMILES): Cc1cc(Cl)ccc1NC(=O)c1sc(-c2ccccc2Cl)nc1C(F)(F)F
Activity (A549 [23]): 48%
Activity (HCT-8): 40%

Structure (SMILES): O=S(=O)(Nc1ccc(-c2csc(N/N=C/c3ccc(N(CCCl)CCCl)cc3)n2)cc1)c1c(F)c(F)c(F)c(F)c1F
IC50 (HCT-116 [24]): 3.02 µg/mL (≈ 4.54 µM)
IC50 (MV4-11 [25]): 2.17 µg/mL (≈ 3.27 µM)
IC50 (MCF7 [26]): 3.42 µg/mL (≈ 5.15 µM)
IC50 (BALB/3T3): 3.2 µg/mL (≈ 4.82 µM)
IC50 (HCT-116 [27]): 3.02 µg/mL (≈ 4.54 µM)
IC50 (MV4-11 [28]): 2170 nM

Structure (SMILES): C/C(=N/Nc1nc(-c2cc3ccccc3oc2=O)cs1)c1cc2ccccc2oc1=O
Activity [29]: 50%

Structure (SMILES): c1ccc2cc(-c3csc(N4CCCC4)n3)ccc2c1
IC50 (HepG2 [30]): 5000 nM
